Laboratory results as given in patent US11911399B2, “Treating and preventing disease with TMA and TMAO lowering agents” (The Cleveland Clinic Foundation, priority 2014, dated 2024).
“Also recorded” adds a separate entry of the source. Where two headings read alike, the source gives them in different places.

How the values were obtained:
platelet aggregation = assay: Platelet aggregometry with submaximal ADP stimulation in human subjects
Method: In further works, human volunteer subject were enrolled in the following study. Individuals were examined at baseline for plasma TMAO and blood drawn for platelet aggregometry studies with submaximal ADP stimulation. Subjects were examined both naïve to aspirin, and then at different time after taking chronic aspirin (81 mg daily) for at least a month. […] After washout period of at least 4 months with no choline supplement, subjects were placed on ASA daily (81 mg) and after a month of ASA, the baseline TMAO level and platelet aggregmetry measure monitored. Then, choline supplementation daily was again resumed.
Choline supplement was used in subjects (choline bitartrate, 2×500 mg/day=choline 2×205.7 mg/day), for 2 month period. Samples were collected at baseline and monthly blood were draw (1,2 months). Plasma levels of TMAO were measured and platelet aggregation in response to 5 uM ADP were measured.

[1] = system: parenchymal fibrosis and collagen deposition in mouse kidneys; assay: Renal fibrosis, Mason trichrome quantitative morphometry; assay type: in vivo, C57BL/6J mice; details: 6 weeks diet: TMAO 0.12% or choline 1.0% vs chow
Description: Quantitative Histologic Techniques.

SMAD3 = assay: Immunoblot of Smad3 phosphorylation in mouse kidneys; assay type: in vivo, C57BL/6J mice; details: 6 weeks diet: TMAO 0.12% or choline 1.0% vs chow
Description: (§1) Preparation of tissue homogenates and immunoblotting.

KIM-1 = assay: Immunoblot of KIM-1 expression in mouse kidneys; assay type: in vivo, C57BL/6J mice; details: 6 weeks diet: TMAO 0.12% or choline 1.0% vs chow
Description: as §1

cystatin C = assay: Cystatin C levels in mice (ELISA); assay type: in vivo; details: 16 weeks diet: TMAO 0.12% or choline 1.0% vs chow
[2] = system: in vivo thrombosis potential
[3] = Plasma TMAO in mice on chow or choline diet with or without ASA (LC/MS/MS); assay type: in vivo, C57BL/6J females mice; details: both diets (chow and choline), p<0.05 in each diet
microbial TMA lyase = assay: TMA lyase activity of Proteus mirabilis lysate (TMA production from d9 substrates); assay type: biochemical
Method: Using PM lysate (PM that is lysed in a French press to break open the cell wall and release enzyme contents) as the enzyme source, the TMA lyase activity (TMA producing activity) was examined in incubations with either d9(trimethyl)choline as substrate, or […] (GPC) as substrate. […] A further examination of the impact of ASA on TMA lyase activity by PM lysate was undertaken. Three mg of PM lysate was incubated with 25 uM choline and 25 uM choline(d9) in 2 ml PBS at 37 C for 20 hours. In FIG. 7, the dotted lines at 81 mg and 320 mg ASA represent reported steady state plasma levels of aspirin reported at those doses in human subjects. […] In light of this, in some embodiments, enteric coated aspirin or aspirin derivatives that have delayed absorption may be employed to treat disease since they would dissolve in the intestines past the stomach, such that the level of ASA or derivative delivered to the gut lumen will be higher. There exist even longer delayed release formulations of medications that could also be used.

[4] = omnivores, ASA 81 mg daily for at least a month, then daily choline supplementation

| time to blood flow cessation ([2]; choline diet alone vs chow, p<0.0001) | TMA lyase inhibition (microbial TMA lyase; 3 mg PM lysate, 25 uM choline and 25 uM choline(d9), 37 C, 20 hours, at ASA plasma level anticipated for 320 mg dose) | SMILES | platelet aggregometry (platelet aggregation; human, in vivo) | parenchymal fibrosis and collagen deposition [1] | phosphorylation of Smad3 (serine 423/425) (SMAD3) | kidney injury marker-1 (KIM-1) (KIM-1) | serum cystatin C levels (cystatin C) | reduction in TMAO level by addition of ASA [3] | inhibition of TMA production (choline TMA lyase activity) (microbial TMA lyase; PM lysate, d9(trimethyl)choline as substrate, physiological range of ASA) | inhibition of TMA production (GPC TMA lyase activity) (microbial TMA lyase; PM lysate, d9(trimethyl)glycerophosphocholine (GPC) as substrate, physiological range of ASA) | rise in platelet aggregation on choline supplementation (platelet aggregation; omnivores, ASA 81 mg daily, submaximal ADP stimulation) | time to blood flow cessation ([2]; choline diet+ASA group vs control (chow and no ASA)) | rise in plasma TMAO on choline supplementation [4] |
| --- | --- | --- | --- | --- | --- | --- | --- | --- | --- | --- | --- | --- | --- |
| reduces the time to blood flow cessation |  | C[N+](C)(C)CCO [choline] | corresponding increases in platelet aggregometrry | corresponding increases in parenchymal fibrosis and collagen deposition | enhanced phosphorylation of Smad3 | increased kidney injury marker-1 | increased serum cystatin C levels compared to chow-fed mice |  |  |  |  |  |  |
|  |  | C[N+](C)(C)[O-] [TMAO, trimethylamine N-oxide] |  | corresponding increases in parenchymal fibrosis and collagen deposition | enhanced phosphorylation of Smad3 | increased kidney injury marker-1 | increased serum cystatin C levels compared to chow-fed mice |  |  |  |  |  |  |
|  | approximately 40% | CC(=O)Oc1ccccc1C(=O)O [ASA, acetylsalicylic acid] |  |  |  |  |  | approx. 2 fold | inhibited TMA production; also recorded: inhibits | inhibited TMA production; also recorded: inhibits | corresponding rise in platelet aggregation too was blunted | no difference in time to blood flow cessation relative to the control | The impact of the choline diet on rise in TMAO was blunted |
